Values of other authors in paper PMC8869242 (Biomedicines, 2022).
Like-named read-outs stand apart in the source and are kept apart here.

Key:
[1] = test system: Ehrlich ascites carcinoma (EAC); conditions: cited from earlier work; for mice died during treatment: two injections per week for 2 weeks
[2] = test system: endothelial cells (HUVEC); parameters: method as in PMID 34339726; conditions: cited from earlier work
CAM = test system: CAM; parameters: method as in PMID 34339726; conditions: concentration of 5 mg/mL; cited from earlier work

O.O.O.O.O=C1[N-]S(=O)(=O)c2ccccc21.O=C1c2ccccc2S(=O)(=O)[N]1[Pd+].c1ccc(-c2cccc(-c3ccccn3)n2)nc1 [[Pd(sac)(terpy)](sac)·4H2O]
tumor volume reduction ([1]; i.p. 2 mg/kg, two injections per week for 2 weeks (cumulative 8 mg/kg)): 67.5%
mice died during treatment ([1]; i.p. 2 mg/kg): 1 of 10

O.O.O=C1[N-]S(=O)(=O)c2ccccc21.[Cl][Pd+].c1ccc(-c2cccc(-c3ccccn3)n2)nc1 [[PdCl(terpy)](sac)·2H2O]
concentration range showing inhibition of migration of endothelial cells (HUVEC) [2]: 12.5 to 50 µM
tumor volume reduction ([1]; 3 mg/kg, two injections per week for 2 weeks (cumulative 12 mg/kg)): 69.8%
mice died during treatment ([1]; 3 mg/kg): 1 of 9
angiogenesis in CAM assay (CAM): inhibition of angiogenesis
